Measured values as given in patent US20240109915A1, “NOVEL ACC INHIBITORS” (Pfizer Inc., priority 2022, published 2024).
One block for each compound: values may come before it.

Target: recombinant human ACC1 (rhACC1) (Homo sapiens (Human), UniProt Q13085)
Assay: Transcreener ADP detection FP assay, direct inhibition of rhACC1
Type: biochemical
Details: Geomean IC50, n ≥ 2 unless * then n = 1; 50 μM ATP, 30 μM acetyl-CoA
Protocol: The direct inhibition of ACC1 for the compounds of the present invention was determined using preparations of recombinant human ACC1 (rhACC1) (SEQ ID NO. 1)
Two liters of SF9 cells, infected with recombinant baculovirus containing full length human ACC1 cDNA, were suspended in ice-cold lysis buffer (25 mM Tris, pH 7.5; 150 mM NaCl; 10% glycerol; 5 mM imidazole (EMD Bioscience; Gibbstown, NJ); 2 mM TCEP (BioVectra; Charlottetown, Canada); Benzonase nuclease (10000 U/100 g cell paste; Novagen; Madison, WI); EDTA-free protease inhibitor cocktail (1 tab/50 ml; Roche Diagnostics; Mannheim, Germany). Cells were lysed by 3 cycles of freeze-thaw and centrifuged at 40,000×g for 40 minutes (4° C.). Supernatant was directly loaded onto a HisTrap FF crude column (GE Healthcare; Piscataway, NJ) and eluted with an imidazole gradient up to 0.5 M over 20 column volumes (CV). ACC1-containing fractions were pooled and diluted 1:5 with 25 mM Tris, pH 7.5, 2 mM TCEP, 10% glycerol and direct loaded onto a CaptoQ (GE Healthcare) column and eluted with an NaCl gradient up to 1 M over 20 CV's. Phosphate groups were removed from purified ACC1 by incubation with lambda phosphatase (100 U/10 μM target protein; New England Biolabs; Beverly, MA) for 14 hours at 4° C.; okadaic acid was added (1 μM final concentration; Roche Diagnostics) to inhibit the phosphatase. Purified ACC1 was exchanged into 25 mM Tris, pH 7.5, 2 mM TCEP, 10% glycerol, 0.5 M NaCl by 6 hour dialysis at 4° C. Aliquots were prepared and frozen at −80° C.
Measurement of rhACC1 Inhibition rhACC1 was assayed in a Corning #3820 (Corning, Tewksbury, MA) 384-well plate using the Transcreener ADP detection FP assay kit (Bellbrook Labs, Madison, Wisconsin) using the manufacturer's recommended conditions for a 50 μM ATP reaction. The final conditions for the assay were 50 mM HEPES, pH 7.2, 10 mM MgCl2, 7.5 mM tripotassium citrate, 2 mM DTT, 0.1 mg/mL BSA, 30 μM acetyl-CoA, 50 μM ATP, and 10 mM KHCO3. Typically, a […] was run for 60 min at room temp, and 10 μl of Transcreener stop and detect buffer was added and the combination incubated at room temp for an overnight (18 hours). The data was acquired on an Envision Fluorescence reader (PerkinElmer) using a 620 excitation Cy5 FP general dual mirror, 620 excitation Cy5 FP filter, 688 emission (S) and a 688 (P) emission filter.

Compound: 2-(tert-butyl)-1′-(4-chloro-5-methoxy-1H-indole-7-carbonyl)-5H-spiro[benzo[d]thiazole-6,4′-piperidin]-4(7H)-one [Example 37]
IC50: 1.3 nM

Compound: CCOc1cc(C(=O)N2CCC3(CC2)Cc2sc(C(C)(C)C)nc2C(O)C3)cc2c(C)nn(C)c12 (racemic) [Example 109, rac-(R)-(2-(tert-butyl)-4-hydroxy-4,7-dihydro-5H-spiro[benzo[d]thiazole-6,4′-piperidin]-1′-yl)(7-ethoxy-1,3-dimethyl-1H-indazol-5-yl)methanone]
IC50: 23.2 nM

Compound: Cc1n[nH]c2c(C)cc(C(=O)N3CCC4(CC3)CC(=O)c3nc(C5(C)CC5)sc3C4)cc12 [Example 1, 1′-(3,7-dimethyl-2H-indazole-5-carbonyl)-2-(1-methylcyclopropyl)-5H-spiro[benzo[d]thiazole-6,4′-piperidin]-4(7H)-one]
IC50: 10.6 nM

Compound: CCc1nc2c(s1)CC1(CCN(C(=O)c3cc(C)c4[nH]nc(C)c4c3)CC1)CC2=O [Example 6, 1′-(3,7-dimethyl-1H-indazole-5-carbonyl)-2-ethyl-5H-spiro[benzo[d]thiazole-6,4′-piperidin]-4(7H)-one]
IC50: 45.5 nM

Compound: Cc1n[nH]c2c(C)cc(C(=O)N3CCC4(CC3)CC(=O)c3nc(C56CC(C5)C6)sc3C4)cc12 [Example 7, 2-(bicyclo[1.1.1]pentan-1-yl)-1′-(3,7-dimethyl-1H-indazole-5-carbonyl)-5H-spiro[benzo[d]thiazole-6,4′-piperidin]-4(7H)-one]
IC50: 11 nM

Compound: CNc1ccc2c(C)cc(C(=O)N3CCC4(CC3)CC(=O)c3nc(C(C)C)sc3C4)cc2n1 [Example 8, 2-isopropyl-1′-(5-methyl-2-(methylamino)quinoline-7-carbonyl)-5H-spiro[benzo[d]thiazole-6,4′-piperidin]-4(7H)-one]
IC50: 5.5 nM

Compound: CNc1ccc2c(C)cc(C(=O)N3CCC4(CC3)CC(=O)c3nc(C5(C)CC5)sc3C4)cc2n1 [Example 9, 1′-(5-methyl-2-(methylamino)quinoline-7-carbonyl)-2-(1-methylcyclopropyl)-5H-spiro[benzo[d]thiazole-6,4′-piperidin]-4(7H)-one]
IC50: 13.4 nM

Compound: COc1cc(C(=O)N2CCC3(CC2)CC(=O)c2nc(C(C)C)sc2C3)cc2c(C)nn(C)c12 [Example 10, 2-isopropyl-1′-(7-methoxy-1,3-dimethyl-1H-indazole-5-carbonyl)-5H-spiro[benzo[d]thiazole-6,4′-piperidin]-4(7H)-one]
IC50: 10 nM

Compound: COc1cc(C(=O)N2CCC3(CC2)CC(=O)c2nc(C4(C)CC4)sc2C3)cc2c(C)nn(C)c12 [Example 11, 1′-(7-methoxy-1,3-dimethyl-1H-indazole-5-carbonyl)-2-(1-methylcyclopropyl)-5H-spiro[benzo[d]thiazole-6,4′-piperidin]-4(7H)-one]
IC50: 4.5 nM

Compound: [2H]C([2H])([2H])C(c1nc2c(s1)CC1(CCN(C(=O)c3cc(OC)c4c(c3)c(C)nn4C)CC1)CC2=O)(C([2H])([2H])[2H])C([2H])([2H])[2H] [Example 12, 1′-(7-methoxy-1,3-dimethyl-1H-indazole-5-carbonyl)-2-(2-(methyl-d3)propan-2-yl-1,1,1,3,3,3-d6)-5H-spiro[benzo[d]thiazole-6,4′-piperidin]-4(7H)-one]
IC50: 5.2 nM

Compound: CN(C)c1cc(C(=O)N2CCC3(CC2)CC(=O)c2nc(C(C)(C)C)sc2C3)cc(-c2ccc(C(N)=O)cc2)n1 [Example 22, 4-(4-(2-(tert-butyl)-4-oxo-4,7-dihydro-5H-spiro[benzo[d]thiazole-6,4′-piperidine]-1′-carbonyl)-6-(dimethylamino)pyridin-2-yl)benzamide]
IC50: 0.9 nM

Compound: CC(C)(C)c1nc2c(s1)CC1(CCN(C(=O)c3ccc4ccc(NC5CCC5)nc4c3)CC1)CC2=O [Example 31, 2-(tert-butyl)-1′-(2-(cyclobutylamino)quinoline-7-carbonyl)-5H-spiro[benzo[d]thiazole-6,4′-piperidin]-4(7H)-one]
IC50: 4 nM

Continued, values first:

IC50: 7.9 nM
Compound: Cc1n[nH]c2c(C)cc(C(=O)N3CCC4(CC3)CC(=O)c3nc(C(C)(C)C(C)C)sc3C4)cc12 [Example 3, 1′-(3,7-dimethyl-1H-indazole-5-carbonyl)-2-(2,3-dimethylbutan-2-yl)-5H-spiro[benzo[d]thiazole-6,4′-piperidin]-4(7H)-one]

IC50: 3.2 nM
Compound: CCNc1cnc2c(C)cc(C(=O)N3CCC4(CC3)CC(=O)c3nc(C(C)(C)C)sc3C4)cc2c1 [Example 18, 2-(tert-butyl)-1′-(3-(ethylamino)-8-methylquinoline-6-carbonyl)-5H-spiro[benzo[d]thiazole-6,4′-piperidin]-4(7H)-one]

IC50: 30.1 nM
Compound: CCOc1cnc2c(C)cc(C(=O)N3CCC4(CC3)CC(=O)c3nc(C(C)(C)C)sc3C4)cc2c1 [Example 20, 2-(tert-butyl)-1′-(3-ethoxy-8-methylquinoline-6-carbonyl)-5H-spiro[benzo[d]thiazole-6,4′-piperidin]-4(7H)-one]

IC50: 3.6 nM
Compound: CSc1cnc2c(C)cc(C(=O)N3CCC4(CC3)CC(=O)c3nc(C(C)(C)C)sc3C4)cc2c1 [Example 21, 2-(tert-butyl)-1′-(8-methyl-3-(methylthio)quinoline-6-carbonyl)-5H-spiro[benzo[d]thiazole-6,4′-piperidin]-4(7H)-one]

IC50: 7.2 nM
Compound: COc1cc(C(=O)N2CCC3(CC2)CC(=O)c2nc(C(C)(C)C)sc2C3)cc(-c2ccc(C(N)=O)cc2)n1 [Example 23, 4-(4-(2-(tert-butyl)-4-oxo-4,7-dihydro-5H-spiro[benzo[d]thiazole-6,4′-piperidine]-1′-carbonyl)-6-methoxypyridin-2-yl)benzamide]

IC50: 3.1 nM
Compound: CNc1nccc2c(C)cc(C(=O)N3CCC4(CC3)CC(=O)c3nc(C(C)(C)C)sc3C4)cc12 [Example 24, 2-(tert-butyl)-1′-(5-methyl-1-(methylamino)isoquinoline-7-carbonyl)-5H-spiro[benzo[d]thiazole-6,4′-piperidin]-4(7H)-one]

IC50: 6.6 nM
Compound: Cc1cc(C(=O)N2CCC3(CC2)CC(=O)c2nc(C(C)(C)C)sc2C3)cc2c(C3CC3)nccc12 [Example 25, 2-(tert-butyl)-1′-(1-cyclopropyl-5-methylisoquinoline-7-carbonyl)-5H-spiro[benzo[d]thiazole-6,4′-piperidin]-4(7H)-one]

IC50: 29.5 nM
Compound: Cc1cnc(C)c2cc(C(=O)N3CCC4(CC3)CC(=O)c3nc(C(C)(C)C)sc3C4)ccc12 [Example 27, 2-(tert-butyl)-1′-(1,4-dimethylisoquinoline-7-carbonyl)-5H-spiro[benzo[d]thiazole-6,4′-piperidin]-4(7H)-one]

IC50: 6.2 nM
Compound: COc1cc(C(=O)N2CCC3(CC2)CC(=O)c2nc(C(C)(C)C)sc2C3)cc2c(C)nccc12 [Example 28, 2-(tert-butyl)-1′-(5-methoxy-1-methylisoquinoline-7-carbonyl)-5H-spiro[benzo[d]thiazole-6,4′-piperidin]-4(7H)-one]

IC50: 11.1 nM
Compound: CCc1nccc2c(OC)cc(C(=O)N3CCC4(CC3)CC(=O)c3nc(C(C)(C)C)sc3C4)cc12 [Example 29, 2-(tert-butyl)-1′-(1-ethyl-5-methoxyisoquinoline-7-carbonyl)-5H-spiro[benzo[d]thiazole-6,4′-piperidin]-4(7H)-one]

IC50: 4.6 nM
Compound: CC(C)Nc1ccc2ccc(C(=O)N3CCC4(CC3)CC(=O)c3nc(C(C)(C)C)sc3C4)cc2n1 [Example 30, 2-(tert-butyl)-1′-(2-(isopropylamino)quinoline-7-carbonyl)-5H-spiro[benzo[d]thiazole-6,4′-piperidin]-4(7H)-one]

IC50: 3.5 nM
Compound: CCNc1ccc2ccc(C(=O)N3CCC4(CC3)CC(=O)c3nc(C(C)(C)C)sc3C4)cc2n1 [Example 32, 2-(tert-butyl)-1′-(2-(ethylamino)quinoline-7-carbonyl)-5H-spiro[benzo[d]thiazole-6,4′-piperidin]-4(7H)-one]

IC50: 1.3 nM
Compound: Cc1cc(C(=O)N2CCC3(CC2)CC(=O)c2nc(C(C)(C)C)sc2C3)c2[nH]ncc2c1Cl [Example 34, 2-(tert-butyl)-1′-(4-chloro-5-methyl-1H-indazole-7-carbonyl)-5H-spiro[benzo[d]thiazole-6,4′-piperidin]-4(7H)-one]

IC50: 2.6 nM
Compound: Cc1cc(C(=O)N2CCC3(CC2)CC(=O)c2nc(C(C)(C)C)sc2C3)c2[nH]ncc2c1C [Example 35, 2-(tert-butyl)-1′-(4,5-dimethyl-1H-indazole-7-carbonyl)-5H-spiro[benzo[d]thiazole-6,4′-piperidin]-4(7H)-one]
